{"source": "paper PMC6261997", "about": "“Synergistic enzymatic and bioorthogonal reactions for selective prodrug activation in living systems” (Nature Communications, 2018)", "assay_type_in_all_cases": "cell-based", "key": {"[1]": {"test": "MTT cell viability / cytotoxicity assay, HeLa cells", "conditions": "human; 500 μM 2, 24 h, MTT", "description": "(§1) Cells were plated in flat-bottom 96-well plates at a density of 3 × 10^3 cells per well. After 12 h of cell attachment, the cell culture medium was replaced with 100 μL of pre-warmed media containing the compounds at different concentrations. After 24–72 h of incubation, cell proliferation was assessed by the MTT assay. A fresh mixture of 10 μL of thiazolyl blue tetrazolium bromide (MTT) and 90 μL of medium were freshly added to each well. After incubation for 4 h, the medium was gently removed. The formazan crystals that formed were dissolved in 110 μL of DMSO, and the absorbance was subsequently measured with a plate reader (Perkin Elmer) at 490 nm. EC50 values were calculated using Origin software. To measure the cytotoxicity of 2, HeLa cells, HUVECs, Saos-2 cells and CCC-HEH-2 cells were incubated with 100 μL of 1–500 μM 2 for 24 h, and then, cell viability was determined. To measure the cytotoxicity of TCO-Dox or Dox, HeLa cells, HUVECs, Saos-2 cells or CCC-HEH-2 cells were incubated with 200 μL of 0.001–10 μM TCO-Dox or Dox for 72 h, and the cell viability was determined. To determine the cytotoxicity of activated Dox, HeLa cells, HUVECs, […], and then, 2 was removed and 200 μL of 0.0001–10 μM TCO-Dox was added for 72 h of incubation, and cell viability was determined. […]\n(§2) Prodrug activation efficacy in cells: Cells were plated on flat bottom 96-well plates at a\n(§3) density of 3x10^3 cells per well. After 12 h attachment, cells were incubated with 100 µL\n(§4) 500 µM of 2 for 6 h before removing 2 and the addition of 200 µL 0.0001-10 µM of […]"}, "Saos-2 cells": {"test_system": "Saos-2 cells", "test": "MTT cell viability / cytotoxicity assay, Saos-2 cells", "conditions": "MTT assay and clonogenic assay", "description": "Cells were plated in flat-bottom 96-well plates at a density of 3 × 10^3 cells per well. After 12 h of cell attachment, the cell culture medium was replaced with 100 μL of pre-warmed media containing the compounds at different concentrations. After 24–72 h of incubation, cell proliferation was assessed by the MTT assay. A fresh mixture of 10 μL of thiazolyl blue tetrazolium bromide (MTT) and 90 μL of medium were freshly added to each well. After incubation for 4 h, the medium was gently removed. The formazan crystals that formed were dissolved in 110 μL of DMSO, and the absorbance was subsequently measured with a plate reader (Perkin Elmer) at 490 nm. EC50 values were calculated using Origin software. To measure the cytotoxicity of 2, HeLa cells, HUVECs, Saos-2 cells and CCC-HEH-2 cells were incubated with 100 μL of 1–500 μM 2 for 24 h, and then, cell viability was determined. To measure the cytotoxicity of TCO-Dox or Dox, HeLa cells, HUVECs, Saos-2 cells or CCC-HEH-2 cells were incubated with 200 μL of 0.001–10 μM TCO-Dox or Dox for 72 h, and the cell viability was determined. To determine the cytotoxicity of activated Dox, HeLa cells, HUVECs, Saos-2 cells or CCC-HEH-2 cells were pre-incubated with 100 μL of 500 μM 2 for 6 h, and then, 2 was removed and 200 μL of 0.0001–10 μM TCO-Dox was added for 72 h of incubation, and cell viability was determined. […]\nProdrug activation efficacy in cells: Cells were plated on flat bottom 96-well plates at a density of 3x10^3 cells per well. After 12 h attachment, cells were incubated with 100 µL 500 µM of 2 for 6 h before removing 2 and the addition of 200 µL 0.0001-10 µM of TCO-Dox. Cells were further incubated for 72 h before measuring the viability by the MTT […]\nClonogenic assay of cells in vitro: Clonogenic assay was performed according to the standard protocol.6 2×10^5 attached cells were treated with 500 µM of 2 for 6 h in culture dishes. Cells were then detached, re-suspended in cultural medium and counted accurately. The cell suspension was diluted into the desired seeding concentration and cells were seeded in 6-well plates at a density of 200 cells per well for CCC-HEH-2 and 400 cells per well for HeLa, Saos-2 and HUVECs. After incubation for 10 days, the cultural medium was removed and cells were rinsed carefully with PBS. 2 mL of a mixture of 6.0% (vol/vol) glutaraldehyde and 0.5% (wt/vol) crystal violet was added and kept for 30 min.\nThe glutaraldehyde crystal violet mixture was removed carefully. The colonies were rinsed with water and dried in normal air at room temperature. The number of the colonies was counted using a stereomicroscope.\nWhen untreated cells are plated as a single-cell suspension at low densities, they will grow to colonies. The plating efficiency (PE) is the ratio of the number of colonies to the […]\n(Supplementary Equation 1)\nThe number of colonies that arise after treatment of cells, expressed in terms of PE, is called the surviving fraction (SF): […]"}, "[2]": {"test": "MTT cell viability / cytotoxicity assay, HUVECs", "conditions": "human; 500 μM 2, 24 h, MTT", "description": "as §1, §2, §3, §4"}}}
{"smiles": "Cc1nnc(-c2ccc(CC(=O)NCCCCC(NC(=O)Cc3ccc4ccccc4c3)C(=O)NC(Cc3ccc(OP(=O)(O)O)cc3)C(=O)NC(Cc3ccccc3)C(=O)O)cc2)nn1", "note": "(stereo not drawn) [compound 2, NapK(Tz)YpF]", "values": [{"measurement": "viability at 24 h, 500 μM", "setting": "[1]", "result": "> 85", "unit": "%"}, {"measurement": "cytotoxicity of 2 against Saos-2 cells", "setting": "Saos-2 cells", "result": "toxic to Saos-2 cells to some extent"}, {"measurement": "viability at 24 h, 500 μM", "setting": "[2]", "result": "> 85", "unit": "%"}]}
